{
  "source": "paper PMC8618058",
  "about": "“A Phenylfurocoumarin Derivative Reverses ABCG2-Mediated Multidrug Resistance In Vitro and In Vivo” (International Journal of Molecular Sciences, 2021)",
  "target": "T1, ABCG2 (Homo sapiens, UniProt Q9UNQ0)",
  "T1 construct": "total membranes of ABCG2-expressing High Five insect cells",
  "T1 sequence (Q9UNQ0 1-655)": "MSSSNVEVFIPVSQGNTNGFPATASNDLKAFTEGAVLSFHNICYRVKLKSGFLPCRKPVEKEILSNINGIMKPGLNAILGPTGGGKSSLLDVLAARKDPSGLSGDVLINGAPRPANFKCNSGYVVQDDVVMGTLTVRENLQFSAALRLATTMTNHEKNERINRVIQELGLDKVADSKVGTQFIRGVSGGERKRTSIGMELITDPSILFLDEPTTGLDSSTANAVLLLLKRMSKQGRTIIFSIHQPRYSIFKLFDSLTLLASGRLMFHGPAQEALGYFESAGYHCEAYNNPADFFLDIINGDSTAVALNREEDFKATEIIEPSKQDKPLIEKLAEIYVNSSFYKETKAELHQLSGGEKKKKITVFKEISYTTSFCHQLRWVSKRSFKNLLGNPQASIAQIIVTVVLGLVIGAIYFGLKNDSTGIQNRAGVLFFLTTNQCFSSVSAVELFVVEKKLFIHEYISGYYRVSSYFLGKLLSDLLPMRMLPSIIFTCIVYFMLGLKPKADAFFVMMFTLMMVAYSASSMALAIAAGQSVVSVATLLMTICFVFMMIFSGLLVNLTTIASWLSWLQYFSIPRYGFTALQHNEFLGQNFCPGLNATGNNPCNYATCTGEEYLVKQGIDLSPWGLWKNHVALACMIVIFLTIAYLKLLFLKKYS",
  "assay": "stimulation of vanadate-sensitive ATPase activity in ABCG2-expressing insect cell membranes; also PhA efflux inhibition in HCT-116/BCRP cells",
  "assay_type": "biochemical",
  "data": [
    {"molecule": "COc1ccc(-c2c3occc3c(OC[C@H]3OC3(C)C)c3ccc(=O)oc23)cc1OC", "note": "[PFC, (R)-9-(3,4-dimethoxyphenyl)-4-((3,3-dimethyloxiran-2-yl)methoxy)-7H-furo [3,2-g]chromen-7-one]", "values": [
      {"measurement": "EC50", "result": "3.8 ± 0.64", "unit": "nM"}
    ]}
  ]
}
